Data published in patent US20260132165A1, “MODIFIED NUCLEOSIDE ANALOGUE AND USE THEREOF, AND NUCLEOSIDE ANALOGUE-CONTAINING DOUBLE-STRANDED OLIGONUCLEOTIDE AND USE THEREOF” (RIGERNA THERAPEUTICS (BEIJING) CO., LTD., priority 2023, published 2026).
Strand notation (5' to 3'): a small letter for the sugar, then the base; units joined by * are phosphorothioate-linked, units joined directly phosphodiester-linked; [ ] holds rarer units or linkages, { } end groups; capitals alone tell only the bases. [Uhd] = commercial nucleoside analogue vector Uhd (Shanghai Hongene), the reference conjugate, placed in the sense strand; [NM031] = nucleoside analogue NM031 of the disclosure, C16 lipid conjugate (uridine-based); {VP} = vinylphosphonate on the antisense 5' end; e = 2'-O-(2-methoxyethyl) (MOE); m = 2'-O-methyl; f = 2'-fluoro

Columns and labels:
[1] = test system: target gene SOD1; assay: Test Example 4: lipid conjugated siRNA sequences with different carbon chain lengths, SOD1 in mouse brain, lateral ventricle administration; assay type: in vivo, C57BL/6j mice; set-up: Right hemisphere Mean value of inhibition rate / Left hemisphere Mean value of inhibition rate: unit not given here; conditions: D5; for Left hemisphere Mean value of inhibition rate: left hemisphere (non-administration side); for Left hemisphere Mean value of inhibition rate / Right hemisphere Mean value of inhibition rate: lateral ventricle; for Right hemisphere Mean value of inhibition rate: right hemisphere (administration side)
Protocol: 6-8 Week-old C57BL/6j mice were randomly grouped by body weight. Mice in each group were administered with siRNA by lateral ventricle administration, with an administration dose per mouse depending on a specific test. Taking Bregma in mouse brain as point 0 (origin), coordinates of right ventricle were found using the cerebral stereotaxic apparatus and position was marked on surface of skull (position of lateral ventricle was AP (anteroposterior, bregma anterior and posterior): −0.58 mm, ML (mediolateral, left and right of middle raphe): −1.2 mm, DV (dorsoventral, up and down cerebral dura mater plane): −2.2 mm). A dental electric drill was used to drill in the skull above a position of interest, and then medicament was injected into the lateral ventricle by a micro-dosing pump, wherein a total injection volume was 5 μL, and injection duration was 10 min. Needle was retained for 5 min after completion of injection, and then slowly withdrawn. Afterwards, needle hole was sealed with biomedical glue, and then head skin was adhered. After animals woke up, the animals were returned back to animal house and further fed. PBS control group was administered with the same volume of siRNA-free PBS solution. The day of administration was recorded as 0 day (D0), and the mice were sacrificed at observation point after the administration. Different parts of brain region were respectively taken and stored in the RNAlater.
(§1) RNA extraction: the above tissue samples were taken out from the RNAlater, and smashed for 60 s in Tissuelyser type II full-automatic tissue homogenizer, and total RNAs of various tissue samples were extracted using the full-automatic nucleic acid extraction instrument and the nucleic acid extraction kit from Zhejiang Hanwei Science and Technology Co. Ltd. according to methods described in instructions.
(§2) Reverse transcription reaction: 1 μg of the extracted total RNAs of the tissue samples were taken, and configured into 20 μL of reverse transcription system according to a method described in kit instructions by using a reverse transcription kit (Reverse Transcription System, A3500) from Promega Corporation and selecting Oligo (dT)15 reverse transcription primers, and the reverse transcription reaction was completed. After the reaction was ended, 80 μL of RNase-Free water was added into the reverse transcription system to provide cDNA solution for Real-time PCR detection.
(§3) Real-time PCR detection: 20 μL of Real-time PCR reaction system per PCR detection well was configured according to a method described in kit instructions using SYBR™ Select Master Mix (Catalog number: 4472908) reagent from ABI company. Each detection system contained 5 μL of cDNA template obtained from the above reverse transcription reaction, 10 μL of SYBR™ Select Master Mix, 0.5 μL of 10 μM upstream primers, 0.5 μL of 10 μM downstream primers, and 4 μL of RNase-Free H2O. The configured reaction system was subjected to Real-time PCR amplification on ABI StepOnePlus PCR instrument by a three-step method, wherein an amplification procedure was pre-denaturation at 95° C. for 10 min, then denaturation at 95° C. for 30 s, annealing at 60° C. for 30 s, and extension at 72° C. for 30 s; and processes of denaturation, annealing, and extension were repeated for 40 cycles. Gene expression differences were calculated by the ΔΔCt method after completion of the procedure.
In the real-time fluorescence quantitative PCR method, relative quantitative calculation of remaining expression level and inhibition rate of gene mRNA of interest in various test groups was performed by the ΔΔCt method, and the calculation method is as follows: […]

[2] = test system: target gene SOD1; assay: Test Example 12: inhibitory activity of lipid conjugated siRNA sequence on SOD1 in mouse eyes (intravitreal administration); assay type: in vivo, C57BL/6J mice; conditions: intravitreal, right eye, 7.5 μg per mouse, D14
Protocol: as §1, §2, §3
(§4) In the real-time fluorescence quantitative PCR method, relative quantitative calculation of remaining expression level and inhibition rate of gene mRNA of interest in various test groups was performed by the ΔΔCt method, and the calculation method is as follows:
The present test example evaluated, by an evaluation method for inhibitory activity on a target gene in mice, the inhibitory activity of siRNA sequence RZ899091 with the sense strand with the NM074 conjugation at Position 4 and siRNA reference sequence RX899121 without vector conjugation on the target gene SOD1 of interest in mice.
6-8 Week-old C57BL/6J mice were randomly grouped by body weight, 5 in each group and 3 groups in total. Mice in each group were administered with the above siRNA conjugate by intravitreal administration to right eyes of the mice, with an administration dose of 7.5 μg per mouse, and an administration volume of 2 μL. PBS control group was administered with the same volume of siRNA conjugate-free PBS solution. The day of administration was recorded as D0, and the mice were sacrificed at D14 after administration. Administration-side ocular retina, choroid, cornea, sclera and other tissues were respectively taken and stored in the RNAlater. RNA extraction, reverse transcription, and real-time fluorescence quantitative detection were performed on various tissues according to the above method, and gene expression differences were calculated by the above ΔΔCt method.

[3] = test system: target gene SOD1; assay: Test Example 5: inhibitory activity of lipid conjugated siRNA sequences on SOD1 by intrathecal administration to rats; assay type: in vivo, SD rats; set-up: key to Lumbar segmen Mean value of inhibition rate / Cortex Mean value of inhibition rate / Thoracic segment Mean value of inhibition rate / Cervical segment Mean value of inhibition rate / Cerebellum Mean value of inhibition rate / Hippocampus Mean value of inhibition rate: inhibition rate of SOD1 mRNA, calculated by the ΔΔCt method; conditions: intrathecal, 900 μg per rat, D7; for Cortex Mean value of inhibition rate: cerebral cortex; for Cervical segment Mean value of inhibition rate: spinal cord cervical segment; for Lumbar segmen Mean value of inhibition rate: spinal cord lumbar segment; for Thoracic segment Mean value of inhibition rate: spinal cord thoracic segment
Protocol: 6-8 Week-old SD rats were randomly grouped by body weight. Rats in each group were administered with siRNA by intrathecal administration, with an administration dose of 900 μg per rat. Injection was administered from rat spinal cord L5-L6, with an administration volume of 40 μL. Needle was retained for 2 min after completion of injection, and then slowly withdrawn. PBS control group was administered with the same volume of siRNA conjugate-free PBS solution. The day of administration was recorded as 0 day (D0), and the rats were sacrificed at observation point after administration. Different segments of spinal cord and different regions of brain were respectively taken and stored in the RNAlater.
as §1, §2, §3, §4
The present example evaluated, by an evaluation method for inhibitory activity on a target gene by intrathecal administration to rats, the inhibitory activity of siRNA sequence RZ899060 with the sense strand with the NM031 conjugation at Position 4 and vector-free siRNA sequence RZ899056, and Uhd conjugated siRNA reference sequence RZ899055 on the target gene SOD1 of interest in spinal cord and brain of rats.
6-8 Week-old SD rats were randomly grouped by body weight, 5 per group, 4 groups in total. Rats in each group were dosed with the above siRNA conjugates by intrathecal administration, with an administration dose of 900 μg per rat, and an administration volume of 40 μL. PBS control group was administered with the same volume of siRNA conjugate-free PBS solution. The day of administration was recorded as 0 day (D0), and the rats were sacrificed on D7 after administration. […]

Substance	Left hemisphere Mean value of inhibition rate ([1]; 150 μg per mouse)	Right hemisphere Mean value of inhibition rate ([1]; 150 μg per mouse)	Cerebellum Mean value of inhibition rate [3]	Cortex Mean value of inhibition rate [3]	Hippocampus Mean value of inhibition rate [3]	Cervical segment Mean value of inhibition rate [3]	Lumbar segmen Mean value of inhibition rate [3]	Thoracic segment Mean value of inhibition rate [3]	other results
RX599002: vector-free siRNA sequence; SEQ ID NO: 17 / 24 (sense mU*mU*mUmUmAmAfUfCfCfUmCmAmCmUmCmUmAmAmA; antisense {VP}-mU*fU*mUmAmGfAmGmUfGmAmGmGmAfUeUfAmAmAmA*mU*mG) [reference compound]	55.55	74.62	–	–	–	–	–	–	–
RX899121: siRNA reference sequence without vector conjugation; SEQ ID NO: 25 / 23 (sense mU*mU*mUmUmAmAfUfCfCfUmCmAmCmUmCmUmAmAmA; antisense {VP}-mU*fU*mUmAmGfAmGmUmGmAmGfGmAfUeUfAmAmAmA*mU*mG) [reference compound]	–	–	–	–	–	–	–	–	Choroid % Mean value of inhibition rate ([2]; choroid): 3.16%; Cornea and sclera % Mean value of inhibition rate ([2]; cornea and sclera): 5.35%; Kidney % Mean value of inhibition rate ([2]; kidney): 2.89%; Liver % Mean value of inhibition rate ([2]; liver): 5.35%; Retina % Mean value of inhibition rate ([2]; retina): 17.47%
RZ899055: Uhd conjugated siRNA reference sequence; SEQ ID NO: 4 / 22 (sense mU*mU*mU[Uhd]mAmAfUfCfCmUmCmAmCmUmCmUmAmAmA; antisense {VP}-mU*fU*mUmAmGfAmGmUmGmAmGmGmAfUmUfAmAmAmA*mU*mG)	–	–	68.43	41.47	48.56	81.31	87.46	91.10	–
RZ899056: vector-free siRNA sequence; SEQ ID NO: 1 / 22 (sense mU*mU*mUmUmAmAfUfCfCmUmCmAmCmUmCmUmAmAmA; antisense {VP}-mU*fU*mUmAmGfAmGmUmGmAmGmGmAfUmUfAmAmAmA*mU*mG)	–	–	50.22	33.88	41.25	70.86	87.58	89.69	–
RZ899077: siRNA sequence with the sense strand with the NM201 (C22) conjugation at Position 4; SEQ ID NO: 19 / 24 (sense UUUNAAUCCUCACUCUAAA; antisense UUUAGAGUGAGGAUUAAAAUG; NM201 (C22) conjugate at sense position 4; modified_base 1..2 OTHER; 2'-methoxy and 5'-thiophosphate modified nucleotides; modified_base 3 OTHER; 2'-methoxy modified nucleotide; modified_base 4 OTHER; n is the synthetic nucleotide analog NM201 as described in the disclosure.; modified_base 5..6 OTHER; 2'-methoxy modified nucleotides; modified_base 7..10 OTHER; 2'-fluoro modified nucleotides; modified_base 11..19 OTHER; 2'-methoxy modified ; modified_base 1 OTHER; 2'-methoxy and 5'-thiovinylphosphonate modified nucleotide; modified_base 2 OTHER; 2'-fluoro and 5'-thiophosphate modified …)	32.81	43.33	–	–	–	–	–	–	–
RZ899092: siRNA sequence with the sense strand with the NM031 (C16) conjugation at Position 4; SEQ ID NO: 14 / 23 (sense mU*mU*mU[NM031]mAmAfUfCfCfUmCmAmCmUmCmUmAmAmA; antisense {VP}-mU*fU*mUmAmGfAmGmUmGmAmGfGmAfUeUfAmAmAmA*mU*mG)	60.45	79.45	–	–	–	–	–	–	inhibitory activity compared with the vector-free siRNA sequence RX599002 ([1]; left and right hemisphere, lateral ventricle 150 μg per mouse): superior inhibitory activity; activity compared with Uhd conjugated reference sequence RZ899093 and NM200 (C22) conjugated reference sequence RZ899076 ([1]; right hemisphere (administration side) and left hemisphere (non-administration side), 150 μg per mouse): substantially comparable activity in the right hemisphere
